From patent US8119695B2, “Compounds and methods for treating breast cancer and other diseases” (City of Hope, priority 2003, dated 2012)

Experiments:
Assay type in all cases: cell-based
ERRβ (GAL-L-ERRb) = molecular target: T1, ERRβ (GAL-L-ERRb) (Homo sapiens, UniProt O95718); assay: MH100x4 luciferase reporter with GAL-L-ERRb; set-up: Reporter Activity: unit not given here
T1 construct: expressed in transfected cells
T1 sequence (O95718 208-432 limits assumed): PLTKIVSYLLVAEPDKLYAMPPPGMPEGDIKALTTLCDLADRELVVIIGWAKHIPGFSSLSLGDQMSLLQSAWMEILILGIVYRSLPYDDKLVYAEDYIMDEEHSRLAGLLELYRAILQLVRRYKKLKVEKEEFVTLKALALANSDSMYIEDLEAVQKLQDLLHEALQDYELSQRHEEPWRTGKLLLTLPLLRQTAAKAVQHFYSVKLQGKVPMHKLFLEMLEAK
Excerpt: (§1) MH100x4 is a luciferase reporter with four copies of a GAL4 […] response element. GAL-L refers to the ligand-binding domain of the indicated receptor fused to the C-terminus of the GAL4 DNA binding domain.

ERRα (GAL-ERRa) = assay: MH100x4 luciferase reporter with GAL-ERRa; set-up: Reporter Activity: unit not given here
Excerpt: as §1

ERRγ (GAL-ERRg) = assay: MH100x4 luciferase reporter with GAL-ERRg; set-up: Reporter Activity: unit not given here
Excerpt: as §1

MH100x4 = MH100x4 luciferase reporter without receptor; conditions: Table 2, dose 5 (unit not given); for Reporter Activity: None 0.49; for Fold Activation: None 1.00
Excerpt: as §1

[1] = Table 2, dose 5 (unit not given), None 1.00
[2] = Table 2, dose 5 (unit not given), None 1.44
[3] = Table 2, dose 5 (unit not given), None 8.54
[4] = Table 2, dose 5 (unit not given), None 1.25
[5] = Table 3, dose 2.5 (unit not given), None 2.2
[6] = Table 3, dose 2.5 (unit not given), None 1

Compound | Fold Activation (ERRβ (GAL-L-ERRb); [1]) | Reporter Activity (ERRβ (GAL-L-ERRb); [2]) | Fold Activation (ERRα (GAL-ERRa); [1]) | Reporter Activity (ERRα (GAL-ERRa); [3]) | Fold Activation (ERRγ (GAL-ERRg); [1]) | Reporter Activity (ERRγ (GAL-ERRg); [4]) | Reporter Activity (MH100x4) | Fold Activation (MH100x4) | Reporter Activity (ERRγ (GAL-ERRg); [5]) | Fold Activation (ERRβ (GAL-L-ERRb); [6]) | Reporter Activity (ERRβ (GAL-L-ERRb); Table 3, dose 2.5 (unit not given), None 2.38) | inhibition of the activity of ERRβ (ERRβ (GAL-L-ERRb); result in words) | Fold Activation (ERRα (GAL-ERRa); [6]) | Reporter Activity (ERRα (GAL-ERRa); Table 3, dose 2.5 (unit not given), None 8.18) | Fold Activation (ERRγ (GAL-ERRg); [6]) | inhibition of the activity of ERRγ (ERRγ (GAL-ERRg); result in words)
CCCCCCCCCCCCOc1ccc(C(CC)=C(CC)c2ccc(OCCCCCCCCCCCC)cc2)cc1 [DY15] | 0.69 | 1 | 0.83 | 7.06 | 0.89 | 1.11 | 0.4 | 0.82 |  |  |  |  |  |  |  | 
CCC(=C(CC)c1ccc(O)c(C=C(C)C)c1)c1ccc(O)cc1 [DY16] | 0.49 | 0.71 | 0.66 | 5.63 | 0.91 | 1.14 | 0.35 | 0.71 |  |  |  |  |  |  |  | 
C=CCOc1ccc(C(CC)=C(CC)c2ccc(OCC=C)cc2)cc1 [DY20] | 0.70 | 1.01 | 0.75 | 6.39 | 0.81 | 1.01 | 0.35 | 0.71 |  |  |  |  |  |  |  | 
CN(C)CCOc1ccc(/C(=C(/CCCl)c2ccccc2)c2ccc(O)cc2)cc1 [DY33] |  |  |  |  |  |  |  |  | 0.58 |  |  |  |  |  |  | 
C=CCc1cc(C(CC)=C(CC)c2ccc(O)c(CC=C)c2)ccc1O [DY22] | 0.44 | 0.64 | 0.39 | 3.35 | 0.50 | 0.63 | 0.28 | 0.57 |  |  |  |  |  |  |  | 
CCC(=C(CC)c1ccc(O)c(C(C)(C)C)c1)c1ccc(O)cc1 [DY18] | 0.42 | 0.6 | 0.40 | 3.39 | 0.58 | 0.73 | 0.26 | 0.53 |  |  |  |  |  |  |  | 
CCC(=C(CC)c1ccc(O)c(C(C)C)c1)c1ccc(O)cc1 [DY17] | 0.53 | 0.76 | 0.61 | 5.18 | 0.73 | 0.91 | 0.39 | 0.80 |  |  |  |  |  |  |  | 
CC/C(=C(/c1ccc(OCCN(C)C)cc1)c1ccc(OC(C)=O)cc1)c1ccccc1 [DY28, (E,Z)-4-{1-[4-(2-dimethylamino-ethoxy)-phenyl]-2-phenyl-but-1-enyl}-phenyl acetate] |  |  |  |  |  |  |  |  | 0.25 | 0.08 | 0.2 | inhibit the activity | 0.99 | 8.08 | 0.11 | inhibit the activity
